The values that follow come from patent publication US9504674B2, “TrkB agonists and methods of use” (EMORY UNIVERSITY, priority 2010, dated 2016).

Assay [1] concerns the target T1, TrkA (Mus musculus, UniProt Q3UFB7).
T1 construct: from tissue; host or cells: brain of chronically treated C57BL/6J mice
The assay can be described thus: TrkA activation in brain of chronically treated mice (immunoblotting p-TrkA 794). It is filed as in vivo. The conditions noted are these: 5 mg/kg oral 21 days, brain lysates. The protocol: The brain lysates from above chronically treated mice were analyzed by immunoblotting with anti-p-TrkA 794 and p-TrkB 817.
(§1) Accumulating evidence supports that BDNF plays a role in mediating therapeutic effects of antidepressants. Infusion of exogenous BDNF into hippocampus or brain stem has anti-depressant-like behavioral effect. A forced swim test is broadly used for screening of potential antidepressant drugs and is widely used to measure antidepressant activity. To explore whether 4′-DMA-7,8-DHF and 7,8-DHF have any antidepressant effect like BDNF, a forced swim test was conducted after chronic treatment of the mice for 21 days via oral injection.
(§2) BDNF/TrkB signaling plays an role in mediating antidepressants' therapeutic effects. A forced swim test is broadly used for screening of potential antidepressant drugs and is widely used to measure antidepressant activity. To explore whether imidazole flavanoid and compound i have any antidepressant effect like BDNF, a forced swim test was conducted after chronic treatment of the mice for 21 days via oral administration.
(In general: A western blot detects proteins with antibodies after separation by electrophoresis.)

Assay [2] deals with T2, TrkB (Rattus norvegicus, UniProt Q63604).
T2 construct: endogenous in cells; host or cells: primary rat cortical neurons (E17 embryos, 13 DIV)
The assay can be described thus: TrkB phosphorylation in primary rat cortical neurons (immunoblotting). It is filed as cell-based. The settings on record: for TrkB activation (phosphorylation) compared to vehicle control: 500 nM compound, 20 min, primary rat cortical neurons, immunoblotting; for minimal concentration triggering TrkB activation (titration assay): primary cortical neurons, different doses. As for the experimental part:
Primary rat cortical neurons from E17 embryos (13 DIV) were treated with 500 nM various chemicals for 15 min. The neuronal cell lysates were collected and resolved on 10% SDS-PAGE. Immunoblotting was conducted with various antibodies. p-TrkB Y817 antibody was employed at 1:20000-40000 dilution.
Primary rat cortical neurons from E17 embryos (13 days in vitro (DIV)) were treated with 500 nM various chemicals for 15 min. The neuronal cell lysates were collected and resolved on 10% SDS-PAGE. Immunoblotting was conducted with various antibodies. p-TrkB Y817 antibody was employed at 1:20,000-40,000 dilution (top panel). Equal amount of TrkB was loaded in all of the samples (middle panel). P-Akt 473 ELISA analysis with the neuronal lysates (bottom panel).
7,8-dihydroxyflavone (7,8-DHF) is a small molecular TrkB agonist. Preliminary structure-activity relationship study (SAR) supports that 7,8-catechol moiety is essential for the agonistic effect by 7,8-DHF. To explore the structure-activity relationship (SAR) in depth, the TrkB stimulatory activity was examined by numerous flavonoid derivatives. The numeric positions and each ring's nomenclature are designated (FIG. 1A). Compounds were dissolved in DMSO, then diluted into […] with 1× PBS (final vehicle contains 10% DMSO/PBS) (FIG. 1B). Primary rat cortical neurons were treated with 500 nM compounds for 20 min. The cell lysates were analyzed by immunoblotting. […] Downstream activation of the TrkB target Akt was tightly correlated with TrkB activation patterns by these derivatives (FIG. 1C, bottom panel). As observed, the hydroxy groups on B ring can regulate 7,8-DHF's stimulatory activity on TrkB receptor. As 2′-hydroxy, especially 3′-hydroxy group, elevates the agonistic effect, whereas 4′-hydroxy group diminishes its stimulatory effect.
To compare the TrkB activation by these synthetic compounds, primary cortical cultures were prepared. Cortical neurons were treated with 500 nM of various compounds for 20 min and cell lysates were collected. […] Replacing the H-bond acceptor O atom with hydrogen bond donor NH abolishes its stimulatory effect. […] On the other hand, 7,8-DHF provoked TrkB activation with the minimal concentration of 100 nM (FIG. 2B, right panels). To further study 4′-DMA-7,8-DHF's kinetics on TrkB activation, primary neurons were treated for various time points. 4′-DMA-7,8-DHF swiftly activated TrkB as soon as 5 minutes following treatment. […] To compare the stimulatory effect on TrkB receptor in mouse brains, 1 mg/kg of the synthesized derivatives were injected into C57BL/6J mice. TrkB activation was monitored at different time points.
Additional compounds are listed as designated from a to m (FIG. 6A). The compounds were dissolved in DMSO, then diluted into 500 μM with 1× PBS (final vehicle contains 10% DMSO/PBS). The primary rat cortical neurons (13 DIV) were treated with 500 nM compounds for 20 min. The cell lysates were analyzed by immunoblotting. […] Moreover, p-Akt ELISA was monitored to quantitatively analyze the agonistic activities of these compounds.

Assay [3] can be described thus: Forced swim test in C57BL/6J mice. It is filed as in vivo, mouse. The settings on record: 5 mg/kg oral for 21 days, male C57BL/6J mice, immobility in last 4 min of 6 min. The protocol:
Male C57BL/6J mice (8 mice/group) were orally administrated by gavage with 5 mg/kg 4′-DMA-7,8-DHF and 7,8-DHF and vehicle solvent saline for 21 days and subjected to a forced swim test (6 min, immobility recorded in the last 4 min). Data are presented as mean±SEM.
Forced swim test with imidazole flavonoid and compound i. Male C57BL/6J mice (8 mice/group) were orally administrated by gavage with 5 mg/kg 4′-DMA-7,8-DHF and 7,8-DHF and vehicle solvent saline for 21 days, and subjected to a forced swim test (6 min, immobility recorded in the last 4 min). Data are presented as mean±SEM.
Adult male mice (2-3 months old) were randomly submitted to a forced swim test without a pre-swim. Saline, 4′-DMA-7,8-DHF and 7,8-DHF (5 mg/kg) were orally injected for 21 days. The mice were allowed to adapt to the test room for 2 days. The mice were placed in a clear glass cylinder with a diameter of 16 cm, half-filled with clear water at 24° C.
as §1, §2

[4] abbreviates: primary neurons, 500 nM, time course.

T1 sequence (Q3UFB7 34-799): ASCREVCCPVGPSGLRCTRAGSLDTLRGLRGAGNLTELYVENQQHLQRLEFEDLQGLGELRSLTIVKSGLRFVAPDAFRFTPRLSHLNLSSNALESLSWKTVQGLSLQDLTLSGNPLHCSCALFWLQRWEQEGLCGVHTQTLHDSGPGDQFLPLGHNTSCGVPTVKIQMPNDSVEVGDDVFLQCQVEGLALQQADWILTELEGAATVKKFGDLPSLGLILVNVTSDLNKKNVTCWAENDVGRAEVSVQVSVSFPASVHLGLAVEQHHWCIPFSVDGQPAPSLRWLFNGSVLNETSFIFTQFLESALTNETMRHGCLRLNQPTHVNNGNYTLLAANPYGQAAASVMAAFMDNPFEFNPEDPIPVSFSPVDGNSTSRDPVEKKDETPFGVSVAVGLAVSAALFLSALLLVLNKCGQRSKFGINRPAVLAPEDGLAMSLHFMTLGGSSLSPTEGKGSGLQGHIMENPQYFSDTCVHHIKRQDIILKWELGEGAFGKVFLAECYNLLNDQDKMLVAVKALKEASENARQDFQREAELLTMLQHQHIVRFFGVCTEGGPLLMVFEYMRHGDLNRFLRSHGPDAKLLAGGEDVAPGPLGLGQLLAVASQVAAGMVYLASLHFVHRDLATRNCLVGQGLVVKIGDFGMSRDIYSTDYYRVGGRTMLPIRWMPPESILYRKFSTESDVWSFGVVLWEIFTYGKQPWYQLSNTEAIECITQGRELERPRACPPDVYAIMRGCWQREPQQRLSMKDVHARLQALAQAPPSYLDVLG
T2 sequence (Q63604 32-821): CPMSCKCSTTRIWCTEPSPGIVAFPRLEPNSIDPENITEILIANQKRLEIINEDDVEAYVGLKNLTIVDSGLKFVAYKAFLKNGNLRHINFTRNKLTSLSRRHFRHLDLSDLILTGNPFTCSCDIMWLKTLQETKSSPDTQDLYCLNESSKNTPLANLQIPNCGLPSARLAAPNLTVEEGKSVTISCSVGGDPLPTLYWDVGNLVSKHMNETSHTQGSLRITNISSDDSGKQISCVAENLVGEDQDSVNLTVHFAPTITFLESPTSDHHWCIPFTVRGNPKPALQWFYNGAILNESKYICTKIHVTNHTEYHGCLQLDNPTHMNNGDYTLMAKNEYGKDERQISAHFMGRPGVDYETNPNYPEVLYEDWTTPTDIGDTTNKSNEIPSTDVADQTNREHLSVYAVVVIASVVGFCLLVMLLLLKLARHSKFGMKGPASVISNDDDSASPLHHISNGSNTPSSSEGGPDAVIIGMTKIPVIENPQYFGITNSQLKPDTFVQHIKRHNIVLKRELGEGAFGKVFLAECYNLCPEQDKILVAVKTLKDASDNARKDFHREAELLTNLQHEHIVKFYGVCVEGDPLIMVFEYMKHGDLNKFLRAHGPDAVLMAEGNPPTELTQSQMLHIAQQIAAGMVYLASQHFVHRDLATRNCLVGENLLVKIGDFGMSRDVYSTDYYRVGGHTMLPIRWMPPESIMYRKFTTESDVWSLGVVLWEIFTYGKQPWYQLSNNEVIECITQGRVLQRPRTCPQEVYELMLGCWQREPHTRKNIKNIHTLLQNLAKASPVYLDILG

As to `CN(C)c1ccc(-c2cc(=O)c3ccc(O)c(O)c3o2)cc1` [4′-DMA-7,8-DHF, 4′-dimethylamino-7,8-dihydroxyflavone], in assay [1], the “TrkA activation in mouse brain after chronic treatment” value (from here on “TrkA activation in mouse brain”) is recorded as “not TrkA activation”. For the same molecule, in assay [2], the “TrkB activation (phosphorylation) compared to vehicle control” value is given as “strongly activated TrkB” and the “minimal concentration triggering TrkB activation (titration assay)” value worked out at 10 nM. In assay [2] (listed as compound a), the “TrkB activation (phosphorylation) compared to vehicle control” value is given as “activated TrkB better than compounds b to d”. Moreover, the “agonistic effect on TrkB relative to parental 7,8-DHF” value in assay [2] (from titration assays) is recorded as “about 10 fold”. Besides, in assay [2] (setting [4]), the “time at which TrkB signal decayed back to baseline” value was in the range of 30 to 180 min and the “time to TrkB activation following treatment” value was found to be 5 min. In assay [3], the “swimming immobility in forced swim test” value is “evidently reduced the immobility”.
Regarding `O=c1cc(-c2ccccc2)oc2c(O)c(O)ccc12` [7,8-DHF, 7,8-dihydroxyflavone, reference compound], the “TrkA activation in mouse brain” value in assay [1] is listed as “not TrkA activation”. In assay [2], the “TrkB activation (phosphorylation) compared to vehicle control” value was “stimulated TrkB activation” and the “minimal concentration triggering TrkB activation (titration assay)” value was determined as 100 nM. In addition, the “swimming immobility in forced swim test” value in assay [3] was “significantly decreased”.
Turning to `CN(C)c1ccc(-c2cc(=O)c3ccc4nc[nH]c4c3o2)cc1` [compound m, 8-(4-(dimethylamino)phenyl)chromeno[7,8-d]imidazol-6(1H)-one], in assay [1], the “TrkA activation in mouse brain” value is listed as “not TrkA activation”. In addition, the “TrkB activation (phosphorylation) compared to vehicle control” value in assay [2] is given as “exhibited strong p-TrkB activity”. For the same molecule, the figures for the “swimming immobility in forced swim test” value in assay [3] (listed as imidazole flavanoid) and in assay [3] (listed as imidazole-derivative) were “significantly decreased” and “more robust antidepressant effect than compound i”, respectively.
